In patent US12433876B2, “Septin inhibitors for treatment of cancers” (UNIVERSITY OF ROCHESTER, priority 2019, dated 2025):
Several values for one entry are separate records, joined by “and”; a condition that tells them apart may be missing. Equal values may be shown once.

Assays:
[1] = system: endometrial (ECC-1 and KLE) and ovarian (HCH-1, OVCAR-3, and SKOV-3) cancer cell lines; assay: MTS cell viability, gynecologic cancer cell line panel; type: cell-based
Experimental: Cell lines, Culture, and Reagents. Cells were maintained in either DMEM (SKOV-3, KLE, OVCAR-3, OVCAR8-C5 and IGROV-1) or RPMI-1640 (ECC-1 and HCH-1), supplemented with 10% fetal calf serum (or 20% for OVCAR-3), penicillin (100 units/mL), and streptomycin (100 μg/mL) at 37° C. with 5% CO2 in a humidified incubator. Antibodies were purchased from Abcam (septin-2; ab179436) and Cell Signaling Technology; ERK (9102), p-ERK (4370), -actin (3700), u-Tubulin (2144), EGFR (4267) and HER2 (4290). FCF was purchased from Abcam. All other chemicals were from Sigma Aldrich. Synthesis of Derivaties. […] The reaction was monitored using thin-layer chromatography plates with DCM-MeOH or pure ethyl acetate as eluent. Spots were monitored in a UV chamber. The reaction mixture, upon completion of the reaction, was poured into wet ice mixture and triturated, then the separated solid was filtered by vacuum. The product was washed with hexane, followed by diethyl ether, and was dried under vacuum. The compounds were characterized by spectrophotometric techniques. Quantitative Real-Time PCR. The indicated cell lines were transfected with siRNA targeting septin-2 or non-targeting control siRNA (Santa Cruz Biotechnology: sc-37007 or sc-40936) using Lipofectamine 3000 (Invitrogen). Tri reagent and Direct-zol kit (Zymo Research) were used to lyse and isolate total RNA. Reverse transcription was performed using iScript cDNA synthesis kit (BioRad), both following the manufacturer's recommendations. Quantitative real-time PCR was conducted using QuantStudio 12 K Flex Real-Time PCR System (ABI) and the Taqman Gene Expression Assay (ABI) consisting of the FAM-labeled probes as follows: SEPT2 (Hs01565417_ml); WFDC2 (Hs00899484_ml); TBP (Hs00427620_ml) or B2M (Hs00187842_ml), which was used as reference for normalization. Cell Viability, Proliferation and Apoptosis Assay. Cell viability, proliferation, and cellular apoptosis were measured using the MTS (Promega), BrdU cell proliferation (Cell Signaling Technology), and Caspase-Glo 3/7 apoptosis detection (Promega) assays, following the respective manufacturer's recommendations with suitable modification. Enzyme-Linked Immunosorbent Assay (ELISA) and Immunoblotting. Cells were maintained overnight in the culture media described above. […] Following the treatment, cell lysates and supernatants were collected and subjected to HE4 assay (Human HE4 Quantikine ELISA Kit, R&D Systems). The amount of HE4 in supernatant was normalized to the protein concentration of matching cell lysate. The levels of HER2 were determined by Human Total ErbB2/Her2 DuoSet IC ELISA (R&D systems. Wester blot analysis was conducted using the protocol previously published (see Kim, K. K. et al. Tetrathiomolybdate inhibits mitochondrial complex IV and mediates degradation of hypoxia-inducible factor-1alpha in cancer cells. Sci. Rep. 5, 14296, 2015). Data Acquisition and Statistical Analysis. Gene expression profiling of septins, comparing microdissected normal ovarian stroma (N=8) against that of tumor stroma samples (N=31) from high grade serous ovarian cancer patients, was obtained from Mixed Ovarian Cancer (CAFs)-Wong-77-u133p2 data-set through ‘R2: Genomics Analysis and Visualization Platform (http://r2/am/n1). Mean values with SD were plotted and compared using Student t-test (two tail, unpaired heteroscedastic t-test, significant difference when p<0.01). The prognostic assessment of septin-2 amongst different cancers or septins in endometrial cancer was conducted using TCGA data acquired through Human Protein Atlas (http://www.proteinatlas.org) (see Uhlen, M. et al. Towards a knowledge-based Human Protein Atlas. Nat. Biotechnol. 28, 1248-1250, 2010). Survival curves between septin high and low population and their statistical significance were analyzed using GraphPad Prism software (Mantel-Cox test). […] Structural Modification of FCF. […]

ECC-1 cells = assay: BrdU cell proliferation assay; type: cell-based; settings: ECC-1, 48 hours
Experimental: Cell lines, Culture, and Reagents. Cells were maintained in either DMEM (SKOV-3, KLE, OVCAR-3, OVCAR8-C5 and IGROV-1) or RPMI-1640 (ECC-1 and HCH-1), supplemented with 10% fetal calf serum (or 20% for OVCAR-3), penicillin (100 units/mL), and streptomycin (100 μg/mL) at 37° C. with 5% CO2 in a humidified incubator. Antibodies were purchased from Abcam (septin-2; ab179436) and Cell Signaling Technology; ERK (9102), p-ERK (4370), -actin (3700), u-Tubulin (2144), EGFR (4267) and HER2 (4290). FCF was purchased from Abcam. All other chemicals were from Sigma Aldrich. Synthesis of Derivaties. […] The reaction was monitored using thin-layer chromatography plates with DCM-MeOH or pure ethyl acetate as eluent. Spots were monitored in a UV chamber. The reaction mixture, upon completion of the reaction, was poured into wet ice mixture and triturated, then the separated solid was filtered by vacuum. The product was washed with hexane, followed by diethyl ether, and was dried under vacuum. The compounds were characterized by spectrophotometric techniques. Quantitative Real-Time PCR. The indicated cell lines were transfected with siRNA targeting septin-2 or non-targeting control siRNA (Santa Cruz Biotechnology: sc-37007 or sc-40936) using Lipofectamine 3000 (Invitrogen). […] Quantitative real-time PCR was conducted using QuantStudio 12 K Flex Real-Time PCR System (ABI) and the Taqman Gene Expression Assay (ABI) consisting of the FAM-labeled probes as follows: SEPT2 (Hs01565417_ml); WFDC2 (Hs00899484_ml); TBP (Hs00427620_ml) or B2M (Hs00187842_ml), which was used as reference for normalization. […] Cell viability, proliferation, and cellular apoptosis were measured using the MTS (Promega), BrdU cell proliferation (Cell Signaling Technology), and Caspase-Glo 3/7 apoptosis detection (Promega) assays, following the respective manufacturer's recommendations with suitable modification. […] Survival curves between septin high and low population and their statistical significance were analyzed using GraphPad Prism software (Mantel-Cox test). […]

Structure (SMILES) | cell viability ([1]; FCF 0, 100, 300 μM, 24 or 72 hours, time- and dose-dependent (FIG. 1)) | proliferation (ECC-1 cells; BrdU, lower dose ranges) | viability of tumor cells, dose-dependent (FIG. 2E) ([1]; 72 hours, MTS) | proliferation in multiple endometrial and ovarian cancer cells ([1]; at considerably lower doses than FCF) | concentration inhibiting proliferation (ECC-1 cells; BrdU (FIG. 2B))
O=C(Nc1ccccc1)Nc1ccnc(Cl)c1 [FCF, N-(2-chloro-4-pyridyl)-N′-phenylurea, reference compound] | reduced the viability | lacked activity |  |  | 
O=C(Nc1cc(Cl)nc(Cl)c1)Nc1cccc(SC(F)(F)F)c1F [UR214-9] |  |  | potent activity across most cell lines | blocked proliferation | ~4 µM and 4 to 5 µM
